We go through 22 compounds from patent publication US12187721B2, “Protein tyrosine phosphatase inhibitors” (Array BioPharma Inc., priority 2018, dated 2025).

The target of assay [1] is T1, full-length SHP2 (His6-tagged SHP2(2-527)) (Homo sapiens, UniProt Q06124).
T1 construct: His6-tagged SHP2(2-527); His6; made in house; host or cells: E. coli
Kind of assay: SHP2 Enzymatic Assay (fluorescence intensity kinetic assay, DiFMUP hydrolysis). The format is biochemical. The method, boiled down:
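1 nM His6-SHP2(2-527), activated by 1 μM bis-phosphopeptide, hydrolysed 50 μM DiFMUP in 25 mM HEPES pH 7.4 with 1 mM DTT, 50 mM KCl and 2% DMSO. DiFMU fluorescence (Ex 355/Em 460 nm) was read kinetically for 15 min at ambient temperature.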

In assay [2] the test system is ERK1/2 (Thr202/Tyr204) phosphorylation in KYSE520 cells. Description: Cellular Phospho-p44/42 MAPK (Erk 1/2) (Thr202/Tyr204) Assay (In-Cell Western). It is filed as cell-based. The note with it: Homo sapiens, KYSE-520, 1 h, read-out: Biological Example 2 IC50 (nM). As for the experimental part:
KYSE520 cells were obtained from DSMZ and grown in RPMI supplemented with 10% fetal bovine serum, pennicillin/streptomycin, 2 mM L-alanyl-L-glutamine dipeptide in 0.85% NaCl (Glutamax™), non-essential amino acids, and sodium pyruvate. Cells were plated in 96-well plates at 30,000 cells/well and allowed to attach overnight at 37° C./5% CO2. Cells were treated with compounds prepared as a 10-point, 1:3 dilution series (range: 20 μM-1 nM), with a final DMSO concentration of 0.5%. After 1 hour incubation, cells were fixed in 3.7% formaldehyde in Dulbecco's phosphate-buffered saline (“dPBS”) at room temperature for 20 minutes. Cells were then washed with dPBS and permeabilized in 100% MeOH at room temperature for 10 minutes. Following permeabilization, cells were washed in dPBS and incubated in LI-COR Blocking Buffer (LI-COR Biosciences, Cat #927-40000) for 1 hour or longer. Plates were then incubated with an antibody specific for the MEK-dependent ERK1/2 phosphorylation sites, threonine 202 and tyrosine 204 (Cell Signaling Technologies; Cat #9101), downstream of SHP2 in the MAP kinase signal transduction pathway, as well as GAPDH (Millipore; Cat #MAB374). pErk1/2 (Thr202/Tyr204) antibody was diluted in LI-COR blocking buffer containing 0.05% polysorbate-20 (Tween-20) at 1:250; GAPDH was diluted at 1:2,500. The plates were incubated overnight at 4° C. After washing with PBS/0.05% Tween-20, the cells were incubated with fluorescently-labeled secondary antibodies (Anti-rabbit-Alexa Flour680, Invitrogen Cat #A21109; Anti-mouse-IRDye800CW, Li-cor Bioscieces Cat #926-32210, both at 1:1000 dilution) for 1 hour. Cells were then washed, as above, and analyzed for fluorescence at both 680 nm and 800 nm wavelengths using the Aerius Infrared Imaging System (LI-COR Biosciences, Model 9250). Phosphorylated Erk1/2 (Thr202/Tyr204) signal was normalized to GAPDH signal for each well. IC50 values were calculated from the normalized values using a 4-parameter fit in BioAssay software. […] The reported IC50 in Table 2 may be from a single assay or the mean of multiple assays.

Where [3] appears, read: full-length SHP2 with 1 μM activating peptide, 50 μM DiFMUP, single assay or mean of multiple assays, read-out: Biological Example 1 IC50.

Usually IC50 stands for the midpoint of a concentration-inhibition curve.

Read-outs that look alike come from different tables or passages of the source.

T1 sequence (Q06124 2-527): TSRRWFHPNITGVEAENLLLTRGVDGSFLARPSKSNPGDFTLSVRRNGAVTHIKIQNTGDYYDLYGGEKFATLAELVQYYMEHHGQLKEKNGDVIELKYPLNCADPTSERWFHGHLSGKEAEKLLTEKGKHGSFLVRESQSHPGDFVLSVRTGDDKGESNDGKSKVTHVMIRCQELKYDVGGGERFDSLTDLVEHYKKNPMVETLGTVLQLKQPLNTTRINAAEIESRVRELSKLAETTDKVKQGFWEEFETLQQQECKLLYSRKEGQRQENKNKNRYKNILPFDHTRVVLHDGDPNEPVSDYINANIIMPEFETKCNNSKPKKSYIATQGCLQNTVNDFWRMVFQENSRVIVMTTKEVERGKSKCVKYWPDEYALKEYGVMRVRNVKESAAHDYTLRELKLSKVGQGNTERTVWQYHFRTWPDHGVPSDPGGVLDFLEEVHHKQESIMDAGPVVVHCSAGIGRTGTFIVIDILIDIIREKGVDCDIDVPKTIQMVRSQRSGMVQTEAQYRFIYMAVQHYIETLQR

As to `CN[C@H]1CCCN(c2cnc3nc(Sc4ccnc(N)c4Cl)ccc3n2)CC1` [Example 91, (S)-1-(6-((2-amino-3-chloropyridin-4-yl)thio)pyrido[2,3-b]pyrazin-2-yl)-N-methylazepan-4-amine], the values for the IC50 in assay [1] and in assay [2] were 106 nM and 317 nM, respectively.

For `C[C@@H]1OCC2(CCN(c3cnc4nc(Sc5ccnc(N6CCC[C@H]6CO)c5Cl)ccc4n3)CC2)[C@@H]1N` [Example 71, ((S)-1-(4-((2-((3S,4S)-4-amino-3-methyl-2-oxa-8-azaspiro[4.5]decan-8-yl)pyrido[2,3-b]pyrazin-6-yl)thio)-3-chloropyridin-2-yl)pyrrolidin-2-yl)methanol], the IC50 in assay [1] stood at 120 nM; in assay [2], 176 nM.

Regarding `C[C@@H]1OCC2(CCN(c3cnc4nc(Sc5cccc(Cl)c5Cl)ccc4n3)CC2)[C@@H]1N` [Example 4, (3S,4S)-8-(6-((2,3-dichlorophenyl)thio)pyrido[2,3-b]pyrazin-2-yl)-3-methyl-2-oxa-8-azaspiro[4,5]decan-4-amine], the figures for the IC50 in assay [1] and in assay [2] were 64 nM and 550 nM, respectively.

`Cc1nccc(Sc2ccc3nc(N4CCC(N)(CO)CC4)cnc3n2)c1Cl` [Example 57, (4-amino-1-(6-((3-chloro-2-methylpyridin-4-yl)thio)pyrido[2,3-b]pyrazin-2-yl)piperidin-4-yl)methanol]: the half-maximal inhibitory concentration (IC50) turned out to be 49 nM in assay [1] and 91 nM in assay [2].

As to `C[C@@H]1OCC2(CCN(c3cnc4nc(Sc5ccnc6[nH]ccc56)ccc4n3)CC2)[C@@H]1N` [Example 189, (3S,4S)-8-(6-((1H-pyrrolo[2,3-b]pyridin-4-yl)thio)pyrido[2,3-b]pyrazin-2-yl)-3-methyl-2-oxa-8-azaspiro[4.5]decan-4-amine], the concentration for half-maximal inhibition (IC50) came to 59 nM in assay [1] and 98 nM in assay [2].

With `CC1(N)CCN(c2cnc3nc(Sc4ccnc(N)c4Cl)ccc3n2)CC1` [Example 1, 4-((2-(4-amino-4-methylpiperidin-1-yl)pyrido[2,3-b]pyrazin-6-yl)thio)-3-chloropyridin-2-amine], the IC50 in assay [1] (setting [3]) turned out to be 33 nM; in assay [2] it was 59 nM.

Turning to `N[C@@H]1c2cccnc2CC12CCN(c1cnc3nc(Sc4ccnc(NCCO)c4Cl)ccc3n1)CC2` [Example 108, (S)-2-((4-((2-(5-amino-5,7-dihydrospiro[cyclopenta[b]pyridine-6,4′-piperidin]-1′-yl)pyrido[2,3-b]pyrazin-6-yl)thio)-3-chloropyridin-2-yl)amino)ethan-1-ol], the figures for the IC50 in assay [1] and in assay [2] were 84 nM and 11 nM, respectively.

On to `N[C@@H]1c2ccccc2CC12CCN(c1cnc3nc(Sc4ccnc5c4C(F)(F)C(=O)N5)ccc3n1)CC2` [Example 142, (S)-4-((2-(1-amino-1,3-dihydrospiro[indene-2,4′-piperidin]-1′-yl)pyrido[2,3-b]pyrazin-6-yl)thio)-3,3-difluoro-1,3-dihydro-2H-pyrrolo[2,3-b]pyridin-2-one], for which the IC50 was determined as 26 nM in assay [1] and 4 nM in assay [2].

Consider `Nc1nccc(Sc2ccc3nc(N4CCC5(CC4)Cc4ncc(F)cc4[C@H]5N)cnc3n2)c1Cl` [Example 117, (S)-1′-(6-((2-amino-3-chloropyridin-4-yl)thio)pyrido[2,3-b]pyrazin-2-yl)-3-fluoro-5,7-dihydrospiro[cyclopenta[b]pyridine-6,4′-piperidin]-5-amine], for which the 50% inhibitory concentration (IC50) in assay [1] (setting [3]) was 50 nM; in assay [2], 6 nM.

Turning to `CC(C)(C#N)CNc1nccc(Sc2ccc3nc(N4CCC(C)(N)CC4)cnc3n2)c1Cl` [Example 134, 3-((4-((2-(4-amino-4-methylpiperidin-1-yl)pyrido[2,3-b]pyrazin-6-yl)thio)-3-chloropyridin-2-yl)amino)-2,2-dimethylpropanenitrile], the IC50 was 238 nM in assay [1] and 810 nM in assay [2].

With `N[C@@H]1c2cccnc2CC12CCN(c1cnc3nc(Sc4cccnc4C(F)(F)F)ccc3n1)CC2` [Example 163, (S)-1′-(6-((2-(trifluoromethyl)pyridin-3-yl)thio)pyrido[2,3-b]pyrazin-2-yl)-5,7-dihydrospiro[cyclopenta[b]pyridine-6,4′-piperidin]-5-amine], the IC50 in assay [1] stood at 52 nM; in assay [2] it was 30 nM.

For `C[C@@H]1OCC2(CCN(c3cnc4nc(Sc5ccnc(N)c5Cl)ccc4n3)CC2)[C@@H]1N` [Example 13, (3S,4S)-8-(6-((2-amino-3-chloropyridin-4-yl)thio)pyrido[2,3-b]pyrazin-2-yl)-3-methyl-2-oxa-8-azaspiro[4,5]decan-4-amine], the IC50 in assay [1] was found to be 84 nM; in assay [2], 79 nM.

Turning to `Cc1ccc2c(c1)[C@@H](N)C1(CCN(c3cnc4nc(Sc5ccnc(N)c5Cl)ccc4n3)CC1)C2` [Example 178, (S)-1′-(6-((2-amino-3-chloropyridin-4-yl)thio)pyrido[2,3-b]pyrazin-2-yl)-6-methyl-1,3-dihydrospiro[indene-2,4′-piperidin]-1-amine], the IC50 in assay [1] (setting [3]) turned out to be 57 nM; in assay [2] it was 17 nM.

Take `Nc1nccc(Sc2ccc3nc(N4CCC[C@@H](N)CC4)cnc3n2)c1Cl` [Example 41, (R)-1-(6-((2-amino-3-chloropyridin-4-yl)thio)pyrido[2,3-b]pyrazin-2-yl)azepan-4-amine]: the IC50 in assay [1] is 56 nM; in assay [2], 110 nM.

On to `Nc1nccc(Sc2ccc3nc(N4CCC5(CC4)CC(F)(F)C[C@H]5N)cnc3n2)c1Cl` (stereo in doubt) [Example 218, 8-(6-((2-amino-3-chloropyridin-4-yl)thio)pyrido[2,3-b]pyrazin-2-yl)-3,3-difluoro-8-azaspiro[4.5]decan-1-amine], for which the half-inhibitory concentration (IC50) came out at 47 nM in assay [1] and 67 nM in assay [2].

Consider `Nc1nccc(Sc2ccc3nc(N4CCC5(CC4)Cc4ncccc4[C@H]5N)cnc3n2)c1Cl` [Example 125, (S)-1′-(6-((2-amino-3-chloropyridin-4-yl)thio)pyrido[2,3-b]pyrazin-2-yl)-5,7-dihydrospiro[cyclopenta[b]pyridine-6,4′-piperidin]-5-amine], for which the half-maximal inhibitory concentration (IC50) came to 38 nM in assay [1] (setting [3]) and 5 nM in assay [2].

Consider `Nc1nccc(Sc2ccc3nc(N4CCC5(CC4)Cc4ccccc4[C@H]5N)cnc3n2)c1Cl` [Example 76, (S)-1′-(6-((2-amino-3-chloropyridin-4-yl)thio)pyrido[2,3-b]pyrazin-2-yl)-1,3-dihydrospiro[indene-2,4′-piperidin]-1-amine], for which the IC50 in assay [1] (setting [3]) worked out at 28 nM; in assay [2] it was 8 nM.

As to `C[C@@H]1OCC2(CCN(c3cnc4nc(Sc5ccnc(N6CCCC6)c5Cl)ccc4n3)CC2)[C@@H]1N` [Example 25, (3S,4S)-8-(6-((3-chloro-2-(pyrrolidin-1-yl)pyridin-4-yl)thio)pyrido[2,3-b]pyrazin-2-yl)-3-methyl-2-oxa-8-azaspiro[4.5]decan-4-amine], the IC50 in assay [1] was 100 nM; in assay [2], 650 nM.

For `C[C@@H]1OCC2(CCN(c3cnc4nc(Sc5ccnc(N6CCC(O)CC6)c5Cl)ccc4n3)CC2)[C@@H]1N` [Example 78, 1-(4-((2-((3S,4S)-4-amino-3-methyl-2-oxa-8-azaspiro[4.5]decan-8-yl)pyrido[2,3-b]pyrazin-6-yl)thio)-3-chloropyridin-2-yl)piperidin-4-ol], the results for the IC50 in assay [1] and in assay [2] were 331 nM and 87 nM, respectively.

Turning to `N#Cc1ccc2ncc(Sc3ccc4nc(N5CCC6(CC5)Cc5ccccc5[C@H]6N)cnc4n3)n2c1` [Example 172, (S)-3-((2-(1-amino-1,3-dihydrospiro[indene-2,4′-piperidin]-1′-yl)pyrido[2,3-b]pyrazin-6-yl)thio)imidazo[1,2-a]pyridine-6-carbonitrile], the IC50 in assay [1] came out at 112 nM.

Compound `COc1nc(N)cc(Sc2ccc3nc(N4CCC5(CC4)Cc4ccccc4[C@H]5N)cnc3n2)c1Cl` [Example 171, (S)-1′-(6-((6-amino-3-chloro-2-methoxypyridin-4-yl)thio)pyrido[2,3-b]pyrazin-2-yl)-1,3-dihydrospiro[indene-2,4′-piperidin]-1-amine] yielded an IC50 in assay [1] of 56 nM.

`C[C@]1(N)CCCN(c2cnc3nc(Sc4ccnc(N)c4Cl)ccc3n2)CC1` (single isomer, unassigned) [Example 75]: the IC50 in assay [1] turned out to be 30 nM.
